Test results reported in patent US7504420B2, “Compounds which inhibit beta-secretase activity and methods of use” (CoMentis, Inc., priority 2005, dated 2009).
Read-outs that look alike come from different tables or passages of the source.

Assays:
[1] = target: memapsin 2 (Homo sapiens, UniProt P56817); assay: Inhibition of memapsin 2 catalytic activity (Ki); type: biochemical; details: memapsin 2, pH 4, 37° C.; read-out: M2K
Protocol: Potency of compounds were determined by measurement of their inhibition of memapsin 2 catalytic activity toward a fluorescent substrate. […] Briefly, assays were performed at pH 4, 37° C., by pre-incubation of memapsin 2 enzyme with compound for 20 minutes. Activity measure was initiated by addition of a fluorogenic substrate FS-2 (Bachem Americas, Torrance, Calif.). Fluorescent signal increase over time was measured as a rate of hydrolysis of the peptide substrate. […]

[2] = system: Aβ production in Chinese hamster ovary cells that over-express human APP695 with the London and Swedish mutations; assay: Cellular Aβ IC50 determination (Aβ40 sandwich ELISA); details: 24 h
[3] = Cricetulus griseus, CHO, read-out: Cell, Aβ40, CHO cells over-expressing human APP695 (London and Swedish mutations), 24 h

Chain of memapsin 2 (P56817 46-501): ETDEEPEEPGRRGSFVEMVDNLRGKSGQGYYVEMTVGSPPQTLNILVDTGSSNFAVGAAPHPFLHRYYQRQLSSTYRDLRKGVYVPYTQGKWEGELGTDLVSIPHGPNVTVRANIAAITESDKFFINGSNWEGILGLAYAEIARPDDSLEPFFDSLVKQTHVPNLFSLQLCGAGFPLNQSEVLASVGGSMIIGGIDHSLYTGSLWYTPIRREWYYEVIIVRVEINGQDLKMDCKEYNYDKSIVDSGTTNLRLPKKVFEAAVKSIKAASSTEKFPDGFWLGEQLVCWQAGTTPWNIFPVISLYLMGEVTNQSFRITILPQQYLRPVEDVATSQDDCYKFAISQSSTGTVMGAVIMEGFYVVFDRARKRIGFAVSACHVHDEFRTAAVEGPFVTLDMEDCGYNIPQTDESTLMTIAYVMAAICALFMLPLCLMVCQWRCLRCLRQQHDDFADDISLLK

Compound	Ki [1] [nM]	also measured
COc1ccccc1CN1CCC(CNCC(O)C(Cc2ccccc2)NC(=O)c2cc(C(=O)NC(C)c3ccccc3)cc(N(C)S(C)(=O)=O)c2)CC1 (stereo not drawn) [N1-(3-hydroxy-4-((1-(2-methoxybenzyl)piperidin-4-yl)methylamino)-1-phenylbutan-2-yl)-5-(N-methylmethylsulfonamido)-N3-(1-phenylethyl)isophthalamide]		IC50 ([2]; read-out: Cell, Aβ40, CHO cells over-expressing human APP695 (London and Swedish mutations)): 1000 to 5000 nM
COc1ccnc(CNCC(O)C(Cc2ccccc2)NC(=O)c2cc(C(=O)NC(C)c3ccccc3)cc(N(C)S(C)(=O)=O)c2)c1 (stereo not drawn) [N1-(3-hydroxy-4-((4-methoxypyridin-2-yl)methylamino)-1-phenylbutan-2-yl)-5-(N-methylmethylsulfonamido)-N3-(1-phenylethyl)isophthalamide]		IC50 [2, 3]: < 1000 nM
COc1cccc(CNCC(O)C(Cc2ccccc2)NC(=O)c2cccc(C(=O)N(C)Cc3cnccn3)c2)c1 (stereo not drawn) [N1-(3-hydroxy-4-(3-methoxybenzylamino)-1-phenylbutan-2-yl)-N3-methyl-N3-(pyrazin-2-ylmethyl)isophthalamide]	> 501	
Cc1csc(CN(C)C(=O)c2cccc(C(=O)NC(Cc3ccccc3)C(O)CNCc3cccc(OCC(C)C)c3)c2)n1 (stereo not drawn) [N1-(3-hydroxy-4-(3-isobutoxybenzylamino)-1-phenylbutan-2-yl)-N3-methyl-N3-((4-methylthiazol-2-yl)methyl)isophthalamide]	< 300	
COc1cccc(CN(CC(O)C(Cc2ccccc2)NC(=O)c2cc(C(=O)NC(C)c3ccccc3)cc(N(C)S(C)(=O)=O)c2)C(=O)CCC(=O)NCCN2CCOCC2)c1 (stereo not drawn) [N1-(3-hydroxy-4-(N-(3-methoxybenzyl)-4-(2-morpholinoethylamino)-4-oxobutanamido)-1-phenylbutan-2-yl)-5-(N-methylmethylsulfonamido)-N3-(1-phenylethyl)isophthalamide]		IC50 [2, 3]: 1000 to 5000 nM
CC(C)Cc1cncc(CNCC(O)C(Cc2ccccc2)NC(=O)c2cc(C(=O)NC(C)c3ccccc3)cc(N(C)S(C)(=O)=O)c2)c1 (stereo not drawn) [N1-(3-hydroxy-4-((5-isobutylpyridin-3-yl)methylamino)-1-phenylbutan-2-yl)-5-(N-methylmethylsulfonamido)-N3-(1-phenylethyl)isophthalamide]		IC50 [2, 3]: < 1000 nM
Cc1csc(CN(C)C(=O)c2cccc(C(=O)NC(Cc3ccccc3)C(O)CNCc3ccccc3)c2)n1 (stereo not drawn) [N1-(4-(benzylamino)-3-hydroxy-1-phenylbutan-2-yl)-N3-methyl-N3-((4-methylthiazol-2-yl)methyl)isophthalamide]	> 501	
CC(NC(=O)c1cc(C(=O)NC(Cc2ccccc2)C(O)CNCC2CCCN2C(C)C)cc(N(C)S(C)(=O)=O)c1)c1ccccc1 (stereo not drawn) [N1-(3-hydroxy-4-((1-isopropylpyrrolidin-2-yl)methylamino)-1-phenylbutan-2-yl)-5-(N-methylmethylsulfonamido)-N3-(1-phenylethyl)isophthalamide]	> 501	
COc1cccc(CNCC(O)C(Cc2ccccc2)NC(=O)c2cc(C(=O)NC(C)C3COC4OCCC43)cc(N(C)S(C)(=O)=O)c2)c1 (stereo not drawn) [N1-(1-(hexahydrofuro[2,3-b]furan-3-yl)ethyl)-N3-(3-hydroxy-4-(3-methoxybenzylamino)-1-phenylbutan-2-yl)-5-(N-methylmethylsulfonamido)isophthalamide]	> 501	
Cc1ccc(CNCC(O)C(Cc2ccccc2)NC(=O)c2cccc(C(=O)N(C)Cc3nc(C)cs3)c2)cc1 (stereo not drawn) [N1-(3-hydroxy-4-(4-methylbenzylamino)-1-phenylbutan-2-yl)-N3-methyl-N3-((4-methylthiazol-2-yl)methyl)isophthalamide]	> 501	
COC(=O)CCCC(=O)N(Cc1cccc(OC)c1)CC(O)C(Cc1ccccc1)NC(=O)c1cc(C(=O)NC(C)c2ccccc2)cc(N(C)S(C)(=O)=O)c1 (stereo not drawn) [methyl 5-((2-hydroxy-3-(3-(N-methylmethylsulfonamido)-5-(1-phenylethylcarbamoyl)benzamido)-4-phenylbutyl)(3-methoxybenzyl)amino)-5-oxopentanoate]		IC50 [2, 3]: < 1000 nM

Second part, led by results:

Ki [1] [nM]	Compound	also measured
< 300	COc1cccc(CNCC(O)C(Cc2ccccc2)NC(=O)c2cccc(C(=O)N(Cc3nc(C)cs3)C3CCCC3)c2)c1 (stereo not drawn) [N1-cyclopentyl-N3-(3-hydroxy-4-(3-methoxybenzylamino)-1-phenylbutan-2-yl)-N1-((4-methylthiazol-2-yl)methyl)isophthalamide]	
> 501	Cc1cc(CNCC(O)C(Cc2ccccc2)NC(=O)c2cc(C(=O)NC(C)c3ccccc3)cc(N(C)S(C)(=O)=O)c2)[nH]n1 (stereo not drawn) [N1-(3-hydroxy-4-((3-methyl-1H-pyrazol-5-yl)methylamino)-1-phenylbutan-2-yl)-5-(N-methylmethylsulfonamido)-N3-(1-phenylethyl)isophthalamide]	
< 300	COc1cccc(CNCC(O)C(Cc2ccccc2)NC(=O)c2cccc(C(=O)N(C)Cc3coc(C)n3)c2)c1 (stereo not drawn) [N1-(3-hydroxy-4-(3-methoxybenzylamino)-1-phenylbutan-2-yl)-N3-methyl-N3-((2-methyloxazol-4-yl)methyl)isophthalamide]	
301 to 500	COc1cccc(CNCC(O)C(Cc2ccccc2)NC(=O)c2cccc(C(=O)N(Cc3nc(C)cs3)C3CCCCC3)c2)c1 (stereo not drawn) [N1-cyclohexyl-N3-(3-hydroxy-4-(3-methoxybenzylamino)-1-phenylbutan-2-yl)-N1-((4-methylthiazol-2-yl)methyl)isophthalamide]	
< 300	COc1cccc(C(C)NCC(O)C(Cc2ccccc2)NC(=O)c2cccc(C(=O)N(C)Cc3nc(C)cs3)c2)c1 (stereo not drawn) [N1-(3-hydroxy-4-(1-(3-methoxyphenyl)ethylamino)-1-phenylbutan-2-yl)-N3-methyl-N3-((4-methylthiazol-2-yl)methyl)isophthalamide]	
< 300	CC(NC(=O)c1cc(C(=O)NC(Cc2ccccc2)C(O)CNCc2cn(COCC[Si](C)(C)C)cn2)cc(N(C)S(C)(=O)=O)c1)c1ccccc1 (stereo not drawn) [N1-(3-hydroxy-1-phenyl-4-((1-((2-(trimethylsilyl)ethoxy)methyl)-1H-imidazol-4-yl)methylamino)butan-2-yl)-5-(N-methylmethylsulfonamido)-N3-(1-phenylethyl)isophthalamide]	
< 300	CCOc1cccc(CNCC(O)C(Cc2ccccc2)NC(=O)c2cccc(C(=O)N(C)Cc3nc(C)cs3)c2)c1 (stereo not drawn) [N1-(4-(3-ethoxybenzylamino)-3-hydroxy-1-phenylbutan-2-yl)-N3-methyl-N3-((4-methylthiazol-2-yl)methyl)isophthalamide]	
< 300	COc1cccc(CNCC(O)C(Cc2ccccc2)NC(=O)c2cccc(C(=O)N(Cc3ccccc3)Cc3nc(C)cs3)c2)c1 (stereo not drawn) [N1-benzyl-N3-(3-hydroxy-4-(3-methoxybenzylamino)-1-phenylbutan-2-yl)-N1-((4-methylthiazol-2-yl)methyl)isophthalamide]	
< 300	COc1cccc(CNCC(O)C(Cc2ccccc2)NC(=O)c2cccc(C(=O)N(Cc3nc(C)cs3)CC(C)C)c2)c1 (stereo not drawn) [N1-(3-hydroxy-4-(3-methoxybenzylamino)-1-phenylbutan-2-yl)-N3-isobutyl-N3-((4-methylthiazol-2-yl)methyl)isophthalamide]	
< 300	COc1cccc(CNCC(O)C(Cc2ccccc2)NC(=O)c2cc(C(=O)NC(C)c3cccc(F)c3)cc(N(C)S(C)(=O)=O)c2)c1 (stereo not drawn) [N1-(1-(3-fluorophenyl)ethyl)-N3-(3-hydroxy-4-(3-methoxybenzylamino)-1-phenylbutan-2-yl)-5-(N-methylmethylsulfonamido)isophthalamide]	
